Test results: patent US20150272939A1, “Identification of Small Molecule Inhibitors of Jumonji AT-Rich Interactive Domain 1A (JARID1A) and 1B (JARID1B) Histone Demethylase” (Yale University, priority 2012, published 2015)
Counter-ions that a name gives are not always drawn. Like-named read-outs stand apart in the source and are kept apart here.

Legend:
JARID1B = target: T1, JARID1B (Homo sapiens, UniProt Q9UGL1); experiment: FLAG-JARID1B histone demethylase assay with AlphaScreen detection (HTS and dose response); format: biochemical; details: for Assay − Artifact Signal (percent): assay signal minus artifact signal; for inhibition at 20 µM: read-out: Inhibitory effect (percent); for Assay Signal (percent) / Validation result of HTS active: effect of the compound in the JARID1B AlphaScreen demethylase assay: validation of HTS actives; for Assay Signal (percent): effect of compound in JARID1B AlphaScreen assay; for Validation result of HTS active: effect of the compound in the JARID1B AlphaScreen demethylase assay: total signal before subtraction of artifact signal;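 as to Assay Signal (percent): compound tested at 20 µM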;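 as to Assay − Artifact Signal (percent): compound tested at 20 µM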;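 as to all read-outs here: FLAG-tagged JARID1B at 4 nM acting on a biotinylated H3K4me3 peptide, demethylation read by AlphaScreen luminescence, with hits checked against bio-H3K4me2 without enzyme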
T1 construct: The FLAG tagged full length JARID1B enzyme was expressed in Sf21 insect cells using FLAG-JARID1B baculoviruses; FLAG (N); made in house; host or cells: Sf21 insect cells (baculovirus)
T1 sequence (Q9UGL1 whole entry): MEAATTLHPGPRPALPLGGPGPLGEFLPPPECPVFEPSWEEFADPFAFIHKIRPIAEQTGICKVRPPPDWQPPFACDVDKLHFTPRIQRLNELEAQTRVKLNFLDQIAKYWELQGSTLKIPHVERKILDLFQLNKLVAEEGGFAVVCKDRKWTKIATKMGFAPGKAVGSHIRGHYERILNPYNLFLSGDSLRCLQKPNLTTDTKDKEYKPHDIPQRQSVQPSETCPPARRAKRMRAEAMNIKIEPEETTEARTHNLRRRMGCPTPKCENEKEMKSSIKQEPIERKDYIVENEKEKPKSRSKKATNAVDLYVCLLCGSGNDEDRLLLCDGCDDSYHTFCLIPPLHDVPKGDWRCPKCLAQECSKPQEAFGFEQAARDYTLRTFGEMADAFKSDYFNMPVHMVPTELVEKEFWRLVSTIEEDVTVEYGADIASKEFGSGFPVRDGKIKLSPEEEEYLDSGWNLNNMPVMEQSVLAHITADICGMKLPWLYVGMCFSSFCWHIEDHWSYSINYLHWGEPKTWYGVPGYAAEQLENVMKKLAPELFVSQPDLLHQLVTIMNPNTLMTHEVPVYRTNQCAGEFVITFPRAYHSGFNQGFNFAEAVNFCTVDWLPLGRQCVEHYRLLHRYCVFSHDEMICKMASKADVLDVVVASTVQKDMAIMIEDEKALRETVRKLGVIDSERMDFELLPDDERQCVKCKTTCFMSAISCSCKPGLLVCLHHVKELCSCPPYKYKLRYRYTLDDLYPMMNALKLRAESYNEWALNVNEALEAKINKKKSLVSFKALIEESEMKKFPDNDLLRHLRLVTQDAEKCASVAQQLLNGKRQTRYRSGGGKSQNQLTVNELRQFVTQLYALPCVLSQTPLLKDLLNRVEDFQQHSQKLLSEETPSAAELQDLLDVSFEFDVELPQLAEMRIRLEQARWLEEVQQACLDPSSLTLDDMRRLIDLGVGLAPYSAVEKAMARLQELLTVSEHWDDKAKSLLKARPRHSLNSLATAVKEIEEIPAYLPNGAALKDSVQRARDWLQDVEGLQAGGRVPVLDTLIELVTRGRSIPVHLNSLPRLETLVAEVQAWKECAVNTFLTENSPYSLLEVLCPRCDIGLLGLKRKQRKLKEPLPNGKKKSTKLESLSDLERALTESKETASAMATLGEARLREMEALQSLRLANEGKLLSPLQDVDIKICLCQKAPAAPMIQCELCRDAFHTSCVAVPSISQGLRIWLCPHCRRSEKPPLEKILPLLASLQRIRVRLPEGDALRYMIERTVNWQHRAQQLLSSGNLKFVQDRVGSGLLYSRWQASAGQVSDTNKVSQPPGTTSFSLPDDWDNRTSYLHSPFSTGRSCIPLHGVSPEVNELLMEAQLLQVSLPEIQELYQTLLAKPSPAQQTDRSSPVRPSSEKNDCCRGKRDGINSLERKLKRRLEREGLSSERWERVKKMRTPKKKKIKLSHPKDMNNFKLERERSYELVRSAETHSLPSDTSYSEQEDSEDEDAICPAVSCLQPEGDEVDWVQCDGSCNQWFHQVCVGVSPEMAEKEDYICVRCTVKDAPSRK

[1] = AlphaScreen counterscreen against bio-H3K4me2 peptide in the absence of enzyme (artifact signal); details: for Artifact Signal (percent): effect of the compound when incubated with bio-H3K4me2 peptide (counterscreen, no enzyme); for Artifact signal: effect of the compound when it is incubated with bio-H3K4me2 peptide: counterscreen, no enzyme;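 as to all read-outs here: counterscreen run without enzyme against bio-H3K4me2 peptide to remove false positive hits from the JARID1 demethylase AlphaScreen screen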
[2] = high-throughput screen, compound 20 μM, standard demethylase conditions (10 μM α-KG, 50 μM Fe (II))
[3] = dose response at 15 μM (low) Fe (II), read-out: IC50 (μM) low Fe (II)
[4] = dose response at 50 μM (high) Fe (II), read-out: IC50 (μM) high Fe (II)
[5] = high-throughput screen, compound 20 μM, IDs marked *: additional hits under reaction condition with 1 mM α-KG

COc1cc(C=O)ccc1OC(=O)c1ccncc1 [YU146698]
Assay − Artifact Signal (percent) (JARID1B): 53.39%
inhibition at 20 µM (JARID1B; [2]): 52.5%
Assay Signal (percent) (JARID1B): 48.27%
Artifact Signal (percent) [1]: −5.12%

c1cc(CNc2ccc3c(c2)OCCO3)ccn1 [YU146041]
Assay − Artifact Signal (percent) (JARID1B): 54.24%
inhibition at 20 µM (JARID1B; [2]): 48.7%
Assay Signal (percent) (JARID1B): 55.23%
Artifact Signal (percent) [1]: 0.99%

O=C(O[C@@H]1Cc2c(O)cc(O)cc2O[C@@H]1c1ccc(O)c(O)c1)c1cc(O)c(O)c(O)c1 [YU155085, EPICATECHIN MONOGALLATE, reference compound]
inhibition at 20 µM (JARID1B; [2]): 99.5%

CCCCCCCCCCCCCCCC[N+](C)(C)C [YU034377, CETRIMONIUM BROMIDE, reference compound]
inhibition at 20 µM (JARID1B; [2]): 94.2%
Validation result of HTS active: effect of the compound in the JARID1B AlphaScreen demethylase assay (JARID1B): −6.81
Artifact signal: effect of the compound when it is incubated with bio-H3K4me2 peptide [1]: −6.13

CC(=O)NNC(=O)c1ccncc1 [YU129955]
Assay − Artifact Signal (percent) (JARID1B): 96.89%
inhibition at 20 µM (JARID1B; [2]): 88.7%
Assay Signal (percent) (JARID1B): 92.06%
Artifact Signal (percent) [1]: −4.84%

CCCCC(=O)Nc1ccc(N2CCC(C(N)=O)(N3CCCCC3)CC2)c(C(=O)O)c1 [YU208194]
inhibition at 20 µM (JARID1B; [2]): 63.8%
Validation result of HTS active: effect of the compound in the JARID1B AlphaScreen demethylase assay (JARID1B): 17.11
Artifact signal: effect of the compound when it is incubated with bio-H3K4me2 peptide [1]: 11.63

COc1cccc2c1C(=O)c1c(O)c3c(c(O)c1C2=O)C[C@@](O)(C(C)=O)C[C@@H]3O[C@H]1C[C@H](N)[C@H](O)[C@H](C)O1 [YU155188, DAUNORUBICIN, reference compound]
inhibition at 20 µM (JARID1B; [2]): 74.7%

O=c1ccc2cc(O)c(O)cc2o1 [Esculetin, esculetin, reference compound]
IC50 (JARID1B; [3]): 2.57 µM
IC50 (JARID1B; [4]): 4.6 µM

TYROTHRICIN [YU034048, reference compound]
Inhibitory effect (percent) (JARID1B; [2]): 68.66%

CC[C@H]1OC(=O)[C@H](C)[C@@H](OC2CC(C)(OC)C(O)C(C)O2)[C@H](C)[C@@H](S2(C)(=O)NC3C(N(C)C)CC(C)NC32)[C@](C)(O)C[C@@H](C)/C(=N\C)[C@H](C)[C@@H](O)[C@]1(C)O (some centres unmarked) [YU035181]
Artifact Signal (percent) [1]: 4.88%

O=c1ccc2cc(O)c(O)cc2o1 [YU155534, ESCULETIN, reference compound]
Artifact Signal (percent) [1]: 6.30%

C[CH2][Hg][S]c1ccccc1C(=O)[O-] [YU034023, THIMEROSAL, reference compound]
Artifact signal: effect of the compound when it is incubated with bio-H3K4me2 peptide [1]: −5.81

O=C(O)/C=C/c1ccc(O)c(O)c1 [Caffeic acid, reference compound]
IC50 (JARID1B; [3]): 1.71 µM
IC50 (JARID1B; [4]): 2.88 µM

Cl.Oc1cc2c(cc1O)[C@H]1c3ccccc3CN[C@@H]1CC2 [YU221065, Benzo[a]phenanthridine-10,11-diol, 5,6,6a,7,8,12b-hexahydro-, trans-, reference compound]
Assay − Artifact Signal (percent) (JARID1B): 55.73%
inhibition at 20 µM (JARID1B; [2]): 49.1%
Assay Signal (percent) (JARID1B): 59.95%

Cc1cc(C)nc(N(C#N)C(=S)N(C)C)n1 [YU145655]
inhibition at 20 µM (JARID1B; [2]): 54.7%

O=c1c2ccccc2[se]n1-c1ccccc1 [Ebselen, ebselen, reference compound]
IC50 (JARID1B; Fe (II) concentration not stated, read-out: IC50 against JARID1B): ~6 µM
IC50 (JARID1B; [3]): 7.63 µM
IC50 (JARID1B; [4]): 5.17 µM

O=C1c2c(O)ccc(O)c2C(=O)c2c(NCCNCCO)ccc(NCCNCCO)c21 [YU034420, MITOXANTHRONE HYDROCHLORIDE, reference compound]
Assay − Artifact Signal (percent) (JARID1B): 10.55%
inhibition at 20 µM (JARID1B; [2]): 101%
Assay Signal (percent) (JARID1B): 99.87%

Cc1cc(/C=C/c2ccc3cc(N(C)C)ccc3[n+]2C)c(C)n1-c1ccccc1 [YU034547, PYRVINIUM PAMOATE, reference compound]
inhibition at 20 µM (JARID1B; [2]): 64.4%
Validation result of HTS active: effect of the compound in the JARID1B AlphaScreen demethylase assay (JARID1B): −3.96

c1ccc2c(c1)CCCC2C1=NCCN1 (centres unmarked) [YU034020, TETRAHYDROZOLINE HYDROCHLORIDE, reference compound]
inhibition at 20 µM (JARID1B; [5]): 99.2%
Validation result of HTS active: effect of the compound in the JARID1B AlphaScreen demethylase assay (JARID1B): −5.13

CC(=O)[O][Hg][c]1ccccc1 [YU034074, PHEN[…], ACETATE, reference compound]
Artifact signal: effect of the compound when it is incubated with bio-H3K4me2 peptide [1]: −10.79

CC(C)(O)[C@@H]1[C@H]2OC(=O)[C@@H]1[C@]1(O)C[C@H]3O[C@]34C(=O)O[C@H]2[C@]14C [YU033619, PICROTIN, reference compound]
inhibition at 20 µM (JARID1B): 46.9%
Validation result of HTS active: effect of the compound in the JARID1B AlphaScreen demethylase assay (JARID1B): −12.66

Cc1ccccc1C(OCCN(C)C)c1ccccc1 (centres unmarked) [YU033938, ORPHENADRINE CITRATE, reference compound]
Artifact Signal (percent) [1]: 0.79%

Cc1noc2c1C(c1ccc(O)c(O)c1)C1=C(CCCC1=O)N2 (centres unmarked) [YU185529]
inhibition at 20 µM (JARID1B; [2]): 61.5%

O=C(O[C@@H]1Cc2c(O)cc(O)cc2O[C@@H]1c1cc(O)c(O)c(O)c1)c1cc(O)c(O)c(O)c1 [YU155090, EPIGALLOCATECHIN-3- MONOGALLATE, reference compound]
Inhibitory effect (percent) (JARID1B; [2]): 98.42%

Cn1c(=O)n(C)c2cc(S(=O)(=O)NNc3ccccc3)ccc21 [YU152899]
inhibition at 20 µM (JARID1B; [2]): 49.6%

N#C/C(=C\c1ccncc1)c1nc2cc(C(F)(F)F)ccc2s1 [ChemBridge 7812182]
IC50 (JARID1B; [3]): 1.66 µM
IC50 (JARID1B; [4]): 1.15 µM

Cn1nnnc1SCC1=C(C(=O)O)N2C(=O)[C@H](NC(=O)C(O)c3ccccc3)C2SC1 (stereo in doubt) [YU034265, CEFAMANDOLE SODIUM, reference compound]
inhibition at 20 µM (JARID1B; [5]): 40.5%

CC(=O)O[C@H]1C[C@@]2(C)[C@@H](C[C@@H](O)[C@H]3[C@@]4(C)CC[C@@H](O)[C@@H](C)[C@@H]4CC[C@@]32C)/C1=C(\CCC=C(C)C)C(=O)O [YU033837, FUSIDIC ACID, reference compound]
inhibition at 20 µM (JARID1B; [2]): 63.1%
Validation result of HTS active: effect of the compound in the JARID1B AlphaScreen demethylase assay (JARID1B): 0.93

O=c1c2cc(O)c(O)cc2oc2cc(O)c([C@@H]3O[C@H](CO)[C@@H](O)[C@H](O)[C@H]3O)c(O)c12 [YU155356, MANGIFERIN, reference compound]
inhibition at 20 µM (JARID1B; [2]): 98.8%

O=c1c(O)c(-c2ccc(O)c(O)c2)oc2c(O[C@@H]3O[C@H](CO)[C@@H](O)[C@H](O)[C@H]3O)c(O)cc(O)c12 [YU155353, GOSSYPIN, reference compound]
inhibition at 20 µM (JARID1B; [2]): 89%

O=C(OC[C@H]1O[C@@H](OC(=O)c2cc(O)c(O)c(OC(=O)c3cc(O)c(O)c(O)c3)c2)[C@H](OC(=O)c2cc(O)c(O)c(OC(=O)c3cc(O)c(O)c(O)c3)c2)[C@@H](OC(=O)c2cc(O)c(O)c(OC(=O)c3cc(O)c(O)c(O)c3)c2)[C@@H]1OC(=O)c1cc(O)c(O)c(OC(=O)c2cc(O)c(O)c(O)c2)c1)c1cc(O)c(O)c(OC(=O)c2cc(O)c(O)c(O)c2)c1 (stereo in doubt) [YU155507, TANNIC ACID, reference compound]
Inhibitory effect (percent) (JARID1B; [2]): 105.46%

Cn1c(/C(C#N)=C/c2ccncc2)nc2ccccc21 [ChemBridge 6339039]
IC50 (JARID1B; [3]): 1.8 µM
IC50 (JARID1B; [4]): 1.31 µM

O=c1c2ccccc2[se]n1-c1ccccc1 [YU034226, EBSELEN, reference compound]
inhibition at 20 µM (JARID1B; [5]): 56.5%
inhibition at 20 µM (JARID1B; [2]): 41.4%

O=C(Nc1ccc(N2Cc3ccccc3OC(c3ccccc3)C2)c(C(=O)O)c1)c1ccccc1F (centres unmarked) [YU208215]
inhibition at 20 µM (JARID1B; [2]): 44.6%

OC1CCCCC1N1CCC(c2ccccc2)CC1 (centres unmarked) [YU034447, VESAMICOL HYDROCHLORIDE, reference compound]
Assay − Artifact Signal (percent) (JARID1B): 8.85%
inhibition at 20 µM (JARID1B): 40.5%
Assay Signal (percent) (JARID1B): 8.67%
